Assay results reported in US9096554B2, “Drugs for inhibiting p38 and uses thereof” (UNIVERSIDAD AUTÓNOMA DE MADRID, priority 2011, dated 2015).
“Also recorded” adds a separate entry of the source.

Key:
[1] = system: TNF-α secretion in response to bacterial LPS in human monocytes (THP-1); test: TNF-α secretion in response to LPS in THP-1 monocytes (ELISA); assay type: cell-based; details: for IC50: Homo sapiens, THP-1, LPS; for activity in TNF-α secretion inhibition compared with comparative Compounds 10-14: FIG. 8
Description: (§1) This assay was performed to analyze the effect of the compounds of the invention on tumor necrosis factor alpha (TNF-α) secretion in response to bacterial lipopolysaccharide (LPS) in human monocytes (THP-1) and on the survival of said THP-1 monocytes in the presence of said compounds.
(§2) Briefly, cells from human monocytic cell line THP-1 (ATCC) at a density of about 10^6 cells/ml were stimulated with bacterial LPS (Sigma, Ref.# L2654) at a concentration of 1 mg/ml for 4 hours in the presence of the compounds of the invention dissolved in dimethyl sulfoxide (DMSO) at different concentrations (0.001, 0.01, 0.1, 1, 10 and 100 μM). The amount of TNF-α secreted into the medium in response to LPS was quantified by means of an ELISA assay (BioTrak, Ref.# RPN2758, GE-Amersham) following the manufacturer's instructions. Cell viability was quantified by means of flow cytometry FACS (FACScalibur, Becton Dickinson) after staining the treated cells with propidium iodide (1 mg/l) and quantifying the amount of positive cells for this stain (Software Cell Quest Pro).
These assays were performed to compare the effect of the compounds of the invention (compounds 1, 2 and 3) on tumor necrosis factor alpha (TNF-α) secretion in response to bacterial lipopolysaccharide (LPS) in human monocytes (THP-1) with respect to compounds that are structurally related but have a different substitution pattern in the phenyl ring. Conditions similar to those described in Example 7 were used.

[2] = system: LysM-GRK2^f/+ mice; test: Carrageenan-induced hyperalgesia in LysM-GRK2f/+ mice, intrathecal injection; assay type: in vivo; details: for hyperalgesia (paw withdrawal latency to heat): 7 days after carrageenan
From the text: To perform this assay, a previously described protocol was followed [Willemen H L, et al., Microglial/macrophage GRK2 determines duration of peripheral IL-1beta-induced hyperalgesia: contribution of spinal cord CX3CR1, p38 and IL-1 signaling. Pain. 2010 September; 150(3):550-60; and Eijkelkamp N, et al., (http://www.ncbi.nlm.nih.gov/pubmed/20147541; J. Neurosci. 2010 Feb. 10; 30(6):2138-49). Briefly, eight female LysM-GRK2^f/+ mice (2 mice per group, 4 paws for each condition) were subjected to an intraplantar injection of carrageenan (Sigma-Aldrich, […] of a 1% solution in saline) for inducing inflammatory-type hyperalgesia in the extremities. Seven (7) days after injecting carrageenan, the paw withdrawal latency time when the paw is in contact with heat was determined as an indication of inflammatory-type pain at time 0 (T=0). The carrier (20% DMSO) or Compound 1 at different concentrations (0.15, 0.5 and 1.5 μg in 5 μL of 20% DMSO) was then intrathecally injected.
The paw withdrawal latency periods were then measured at different times (0.5, 1, 2, 4, 6, 8, 10, 24, 48 and 96 hours after injecting the compound).
To evaluate the effect of Compound 5 on hyperalgesia induced in mice, a protocol similar to that described for Compound 1 in Example 9A was followed, but in this protocol, the known p38 MAPK inhibitor SB239063 (5 μg in 5 μL of 20% DMSO), the carrier (20% DMSO), or Compound 5 (4 μg in 5 μL of 20% DMSO) was intrathecally injected 7 days after injecting the carrageenan.

[3] = system: THP-1 monocytes; test: THP-1 monocyte survival (propidium iodide, FACS); assay type: cell-based, human; details: dose causing the death of 50% of the cells; THP-1, propidium iodide FACS
Description: as §1, §2

[4] = system: spinal cord astrocytes and neurons; test: Toxicity at the intrathecal injection site, Fluoro-Jade B staining, LysM-GRK2f/+ mice; assay type: in vivo; details: two days after the injection, FIG. 10
Description: Furthermore, the possible toxicity of Compound 1 at the injection site (intrathecal) was measured.

[5] = system: TNF-α; test: TNF-α levels in the spinal cord after intrathecal treatment (ELISA); assay type: in vivo, mice; details: FIG. 11D
Description: To find out if TNF-α levels are repressed in vivo after treatment with Compound 1, the spinal cord was isolated two days after intrathecal treatment with said compound and TNF-α levels were analyzed with ELISA.

[6] = Paw thickness as measurement of ongoing inflammation; assay type: in vivo, mice; details: six days after treatment, FIG. 11E
[7] = system: p38 MAPK; test: Activation of p38 MAPK in response to LPS and its activity (P-MK2, P-Hsp27) in THP-1 cells, Western Blot; assay type: cell-based, human; details: THP-1, LPS, 1 and 5 μM, FIG. 2B
Description: This assay was performed to analyze the effect of Compound 1 on the activation of p38 MAPK and on its activity in a human monocytic cell line (THP-1) (American Type Culture Collection: http://www.atcc.org/) treated with different concentrations of said compound.
Briefly, human monocytic cells from said THP-1 cell line at a density of about 10^6 cells/ml were stimulated with bacterial LPS (Sigma #L2654) at a concentration of between 1 and 10 mg/ml (which may vary depending on the batch) for 1 hour in the absence or presence of Compound 1 at different concentrations (1 μM and 5 μM) dissolved in dimethyl sulfoxide (DMSO). DMSO was used as a control. The cells were lysed in a 100 mM pH 7.5 Tris/HCl buffer, 200 mM EDTA, 1 μM benzamidine, 10 mg/ml STI (soy trypsin inhibitor), 10 mg/ml bacitracin, 80 mU/ml aprotinin, 100 μM phenylmethanesulfonyl fluoride (PMSF) and phosSTOP (Roche, Ref.#04906845001). The samples were subsequently analyzed using Western Blot with specific antibodies. Briefly, the activation of p38 MAPK was analyzed by quantifying by densitometry the amount of p38 MAPK phosphorylated in the activation loop (TGY) by means of Western Blot with anti-phospho-T180-Y182-p38 antibodies (Cell Signaling, Ref.#9211) and by normalizing the values with those obtained for total p38 MAPK levels in each lysate. […]

[8] = system: wild-type mice of strain C54BL/6; test: Hyperalgesia induced by high doses of carrageenan in wild-type mice, intrathecal injection; assay type: in vivo; details: for analgesic effect: FIG. 11A
Description: The administration of high doses of carrageenan is known to induce hyperalgesia and prolonged inflammation in wild-type mice. Briefly, 16 female wild-type mice of strain C54BL/6 (4 mice per group, 8 paws for each condition) were subjected to intraplantar injection of carrageenan (Sigma-Aldrich, 20 μL of a 2% solution % in saline) for inducing inflammatory-type hyperalgesia in the extremities. Six (6) days after injecting carrageenan, the paw withdrawal latency time when the paw is in contact with heat was determined as an indication of inflammatory-type pain at time 0 (T=0). The known p38 MAPK inhibitor SB239063 [trans-4-[4-(4-fluorophenyl)-5-(2-methoxy-4-pyrimidinyl)-1H-imidazol-1-yl]cyclohexanol] (5 μg in 5 μL of 20% DMSO), the carrier (20% DMSO), or Compound 1 at different concentrations (0.5, 1.0 and 1.5 μg in 5 μL of 20% DMSO) was then intrathecally injected.

[9] = molecular target: p38 MAPK (Homo sapiens, UniProt Q16539); test: Inhibition of MEF2A phosphorylation by p38 MAPK in vitro; assay type: biochemical; details: MEF2A (10 nM) phosphorylation by active recombinant p38 (1 nM), 5 minutes
Description: This assay was performed to quantify the effect of the compounds of the invention on MEF2-A phosphorylation by p38 MAPK in vitro.
To that end, briefly, active recombinant p38 (1 nM) and MEF2A (10 nM) were incubated with different concentrations of Compound 1 in a kinase buffer for 5 minutes. The proteins were resolved using SDS-PAGE and the activity of p38 was measured as phosphorylated MEF2A using anti-P-MEF2A (T312), a specific antibody. The mean of the results is graphically depicted as a percentage with respect to the controls (DMSO) of two independent experiments conducted in duplicate. For comparative purposes, Compound 5 at a concentration of 10 μM was used.
Finally, the in vitro mean inhibitory concentration (IC50) of this reaction for each assayed compound was determined as the measurement of the efficacy of a compound for inhibiting this biochemical function using a sufficient range of concentrations of each of these compounds (data not shown).

[10] = system: peritoneal macrophages of WT and GRK2^+/− mice; test: LPS-induced TNF-α secretion in peritoneal macrophages of WT and GRK2+/− mice; assay type: cell-based; details: all doses, FIG. 13
Description: GRK2^+/− peritoneal macrophages were subjected to treatment with LPS and TNF secretion was measured in the presence of increasing doses of Compound 1 as described above. The inhibition observed in GRK2^+/− macrophages was greater than that obtained for WT cells for all doses of Compound 1. The data are means of points in duplicate referring in each case to the secretion obtained in WT macrophages in the presence of Compound 1 at the same dose.
TNF-α secretion inhibition in peritoneal macrophages of GRK2^+/− mice with Compound 1 was studied. As can be observed in FIG. 13, the greater effect of Compound 1 on GRK2^+/− macrophages may indicate that cells with a lower GRK2 level, as occurs in immune system cells from patients with inflammatory pathologies (Vroon A, Kavelaars A, Limmroth V, Lombardi M S, Goebel M U, Van Dam A M, Caron M G, Schedlowski M, Heijnen C J., J Immunol., 2005, 174(7), 4400-6) are more sensitive to such inhibition.

[11] = doses of 1 and 1.5 μg intrathecal
[12] = Table 3, comparison with positional isomers

p38 MAPK (Homo sapiens, UniProt Q16539), sequence (Q16539 whole entry): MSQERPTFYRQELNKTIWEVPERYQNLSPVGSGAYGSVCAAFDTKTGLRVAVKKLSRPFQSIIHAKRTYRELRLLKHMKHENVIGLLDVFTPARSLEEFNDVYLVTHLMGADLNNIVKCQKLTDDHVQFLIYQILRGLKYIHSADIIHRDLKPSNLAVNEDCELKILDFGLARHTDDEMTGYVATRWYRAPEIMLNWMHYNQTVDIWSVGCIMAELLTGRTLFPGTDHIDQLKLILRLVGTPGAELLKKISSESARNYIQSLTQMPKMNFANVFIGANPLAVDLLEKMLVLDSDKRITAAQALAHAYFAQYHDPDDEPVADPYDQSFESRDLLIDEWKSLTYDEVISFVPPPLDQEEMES

## COc1ccc(Cl)cc1C(=O)Nc1ccc(Cl)c2nonc12 [Compound 4, 5-chloro-N-(7-chloro-benzo[1,2,5]oxadiazol-4-yl)-2-methoxy-benzamide]
[1]; Table 2, TNF-α ELISA
  IC50: 3.2 µM

## Cc1ccc(Cl)cc1Nc1ccc([N+](=O)[O-])c2nonc12 [Compound 1, (5-chloro-2-methyl-phenyl)-(7-nitro-benzo[1,2,5]oxadiazol-4-yl)-amine]
[1]; Table 2, TNF-α ELISA
  IC50: 1.8 ± 0.006 µM
[1]; human monocytes
  activity in TNF-α secretion inhibition compared with comparative Compounds 10-14: greater activity
[2]; dose of 0.3 μg intrathecal, FIG. 9B
  long-term analgesic effect: did not provide any long-term analgesic effect
[2]; doses of 0.5 and 1.5 μg intrathecal
  time the reduction of hyperalgesia was maintained after administering: ≥ 96 h
[2]; doses of 0.5 and 1.5 μg intrathecal, FIG. 9A
  hyperalgesia (paw withdrawal latency to heat): almost complete reduction of hyperalgesia
[2]; intrathecal, FIG. 9B
  lowest effective dose: 0.5 µg
[3]
  TD50 (μM): ≈200 μM (n = 2)
[4]
  neurotoxicity at the injection site (Fluoro-Jade B, dead or damaged cells): no signs of neurotoxicity were detected; also recorded: hardly any dead cells
[5]; after intraplantar carrageenan, two days after intrathecal treatment
  TNF-α levels in the spinal cord: significantly reduces
[5]; without carrageenan
  TNF-α secretion, compound alone: has no effect
[6]
  mouse paw thickness: increased
[7]
  activation of p38 MAPK (P-p38): decrease in the activation of p38 MAPK
  phosphorylation of MK2 and Hsp27 substrates: decrease in the phosphorylation
[8]; dose of 0.5 μg intrathecal, 6 days after carrageenan
  analgesic effect: temporary effect
[8]; [11]
  duration of analgesic effect: at least 5 days
  analgesic effect: long-term analgesic effect
[9]
  IC50: 6.5 µM
[10]
  inhibition of TNF secretion in GRK2+/− macrophages compared with WT cells: greater

## Cc1ccc(Nc2ccc([N+](=O)[O-])c3nonc23)cc1Cl [Compound 7, reference compound]
[1]; [12]
  IC50: 17 ± 1.41 µM

## Cc1ccc(Cl)cc1Nc1cc(Cl)c2nonc2c1[N+](=O)[O-] [Compound 5, (5-chloro-2-methyl-phenyl)-(7-chloro-4-nitro-benzo[1,2,5]oxadiazol-5-yl)-amine]
[1]; Table 2, TNF-α ELISA
  IC50: 0.3 µM
[2]; 4 μg intrathecal
  time after administering at which the decrease in hyperalgesia can be detected: 8 days
[2]; 4 μg intrathecal, FIG. 12
  hyperalgesia (paw withdrawal latency to heat): decrease in hyperalgesia
[3]
  TD50 (μM): >35 μM (n = 3)
[9]
  IC50: 10 µM

## O=[N+]([O-])c1ccc(Nc2cccc(F)c2F)c2nonc12 [Compound 9, reference compound]
[1]; Table 4, comparison with positional isomer
  IC50: 5.25 ± 0.35 µM
[1]; human monocytes, FIG. 7
  capacity for reducing TNF-α secretion compared with Compound 3: lower capacity

## O=[N+]([O-])c1ccc(Nc2cc(Cl)ccc2O)c2nonc12 [Compound 2, 4-chloro-2-(7-nitro-benzo[1,2,5]oxadiazol-4-ylamino)-phenol]
[1]; Table 2, TNF-α ELISA
  IC50: 3.2 ± 0.25 µM
[1]; human monocytes
  activity in TNF-α secretion inhibition compared with comparative Compounds 10-14: greater activity
[3]
  TD50 (μM): >100 μM (n = 2)

## O=[N+]([O-])c1ccc(Nc2cc(F)ccc2F)c2nonc12 [Compound 3, (2,5-difluoro-phenyl)-(7-nitro-benzo[1,2,5]oxadiazol-4-yl)-amine]
[1]; Table 2, TNF-α ELISA
  IC50: 2.9 ± 0.41 µM

## Cc1ccc(Nc2ccc([N+](=O)[O-])c3nonc23)c(Cl)c1 [Compound 8, reference compound]
[1]; [12]
  IC50: 29 ± 1.41 µM

## Cc1ccc(C)c(Nc2cc(Cl)c3nonc3c2[N+](=O)[O-])c1 [Compound 6, (7-chloro-4-nitro-benzo[1,2,5]oxadiazol-5-yl)-(2,5-dimethyl-phenyl)-amine]
[1]; Table 2, TNF-α ELISA
  IC50: 3 µM
